Results reported in US9302991B2, “Arylamide derivatives as TTX-S blockers” (RaQualia Pharma Inc., priority 2010, dated 2016).

Assays:
[1] = test system: Paw incision-induced static allodynia in rats; assay: Paw incision-induced static allodynia in rats; assay type: in vivo, Sprague-Dawley rats; conditions: 30 mg/kg per os
Procedure: Paw Incision-Induced Static Allodynia in Rats
Male Sprague-Dawley rats at 7 weeks old are purchased from Charles River Japan Inc., and housed in groups of two per cage under a 12-h light/dark cycle (lights on at 07:00) with access to food and water ad libitum. Paw incision-induced static allodynia is assessed by VFH test. Surgery is performed according to the procedure described by Brennan et al. (Pain 1996, 64: 493-501). The animals are initially anesthetized with 3-4% isoflurane/O2 mixture in an anesthetic chamber and maintained with 2-3% delivered through a nose cone. The plantar surface of the right hind paw is sterilized with 7.5% povidone-iodine solution. A 1-cm longitudinal incision is made with a number 11 blade, through skin and fascia of the plantar aspect of the paw, starting 0.5 cm from the proximal edge of the heel and extending toward the toes. The plantaris muscle is elevated using forceps and retracted. The muscle origin and insertion remain intact. After hemostasis with gentle pressure, the skin is apposed with 2 sutures of 5-0 nylon. The wound site is covered with Terramycin ointment, and the rats are allowed to recover in their cages with soft bedding. The animals are individually placed in a Plexiglas test chamber on an elevated grid to acclimate for 1 hour before the day of surgery. […] The PWT is measured at the appropriated time after compound administration.

human Nav1.7 (hSCN9A) = target: T1, human Nav1.7 (hSCN9A) (Homo sapiens, UniProt Q15858); assay: Electrophysiology assay for Navs, whole cell patch clamp, Nav1.7; assay type: cell-based; conditions: Kinact, dissociation constant for the inactivated state, read-out: activities (Ki) against Nav1.7
T1 construct: expressed in transfected cells; host or cells: CHO
T1 sequence (Q15858 whole entry): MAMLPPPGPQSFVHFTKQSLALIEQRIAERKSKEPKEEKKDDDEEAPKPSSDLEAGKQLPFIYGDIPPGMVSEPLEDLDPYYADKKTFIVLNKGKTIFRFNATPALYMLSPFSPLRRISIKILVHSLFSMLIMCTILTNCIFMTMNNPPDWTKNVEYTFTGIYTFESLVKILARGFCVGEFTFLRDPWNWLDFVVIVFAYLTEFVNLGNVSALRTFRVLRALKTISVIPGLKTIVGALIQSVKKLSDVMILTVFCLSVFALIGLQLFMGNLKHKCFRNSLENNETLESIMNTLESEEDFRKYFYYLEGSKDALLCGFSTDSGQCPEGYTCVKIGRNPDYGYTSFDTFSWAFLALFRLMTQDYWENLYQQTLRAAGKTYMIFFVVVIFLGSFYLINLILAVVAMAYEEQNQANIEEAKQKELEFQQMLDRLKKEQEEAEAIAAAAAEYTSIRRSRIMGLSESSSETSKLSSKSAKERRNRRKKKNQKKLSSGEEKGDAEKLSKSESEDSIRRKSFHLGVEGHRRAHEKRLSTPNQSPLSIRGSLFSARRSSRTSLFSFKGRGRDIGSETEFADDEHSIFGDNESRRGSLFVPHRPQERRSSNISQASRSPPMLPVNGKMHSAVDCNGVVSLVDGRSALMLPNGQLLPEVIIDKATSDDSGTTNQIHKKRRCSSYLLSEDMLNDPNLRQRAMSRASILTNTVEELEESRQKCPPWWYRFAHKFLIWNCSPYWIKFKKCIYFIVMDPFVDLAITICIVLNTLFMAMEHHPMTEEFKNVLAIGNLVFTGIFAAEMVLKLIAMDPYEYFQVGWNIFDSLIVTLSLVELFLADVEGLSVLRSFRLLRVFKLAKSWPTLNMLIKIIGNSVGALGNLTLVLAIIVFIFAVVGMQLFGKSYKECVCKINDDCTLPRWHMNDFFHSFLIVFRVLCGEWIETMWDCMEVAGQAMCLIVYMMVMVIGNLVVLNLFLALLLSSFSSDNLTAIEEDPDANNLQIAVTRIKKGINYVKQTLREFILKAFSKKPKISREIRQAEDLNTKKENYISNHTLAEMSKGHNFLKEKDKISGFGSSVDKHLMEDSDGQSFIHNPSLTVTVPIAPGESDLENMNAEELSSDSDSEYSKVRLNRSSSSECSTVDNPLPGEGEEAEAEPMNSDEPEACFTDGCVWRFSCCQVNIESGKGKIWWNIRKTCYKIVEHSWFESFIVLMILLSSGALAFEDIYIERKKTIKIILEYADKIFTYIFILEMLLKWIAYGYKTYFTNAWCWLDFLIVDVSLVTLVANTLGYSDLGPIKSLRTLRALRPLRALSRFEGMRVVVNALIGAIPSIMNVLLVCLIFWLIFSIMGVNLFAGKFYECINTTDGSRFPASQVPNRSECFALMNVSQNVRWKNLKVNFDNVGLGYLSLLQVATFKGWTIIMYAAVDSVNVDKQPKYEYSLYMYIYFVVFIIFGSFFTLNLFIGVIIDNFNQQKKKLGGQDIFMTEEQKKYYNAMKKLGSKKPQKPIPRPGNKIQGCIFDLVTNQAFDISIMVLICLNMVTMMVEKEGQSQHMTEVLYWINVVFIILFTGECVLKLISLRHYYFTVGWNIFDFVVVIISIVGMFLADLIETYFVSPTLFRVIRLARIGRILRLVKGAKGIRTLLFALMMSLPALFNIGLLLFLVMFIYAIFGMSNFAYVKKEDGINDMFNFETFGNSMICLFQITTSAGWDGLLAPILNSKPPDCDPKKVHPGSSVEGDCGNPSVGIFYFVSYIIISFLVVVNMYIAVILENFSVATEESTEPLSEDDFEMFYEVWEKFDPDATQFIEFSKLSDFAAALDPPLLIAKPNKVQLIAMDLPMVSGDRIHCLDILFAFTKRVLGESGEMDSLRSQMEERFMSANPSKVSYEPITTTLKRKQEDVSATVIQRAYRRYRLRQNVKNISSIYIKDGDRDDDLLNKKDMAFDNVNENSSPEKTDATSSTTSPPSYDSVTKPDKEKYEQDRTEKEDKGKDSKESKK
Procedure: Electrophysiology Assay for Navs
Whole cell patch clamp recording is used to assess the efficacy or selectivity of Na channel blocker on human Nav1.3 (hSCN3A) expressing HEK293 cells or human Nav1.7 (hSCN9A) expressing CHO cells. Human Nav1.3 expressing HEK293 cells are grown in growth media which comprised: DMEM, 10% heat-inactivated FBS (Hyclone Laboratories Inc), 100 microgram/mL Penicillin/100 U/mL Streptomycin, 150 microgram/mL Zeocin, 3 microgram/mL Geneticin. Human Nav1.7 expressing CHO cells are grown in growth media which comprised: HAM/F-12, 9% heat-inactivated FBS (Hyclone Laboratories Inc), 100 microgram/mL Penicillin/100 U/mL Streptomycin, 100 microgram/mL Hygromycin.
Na channel expressing cells are dissociated by 0.05% Trypsine-EDTA, and then seeded on cover glass for 24-48 hr. […]
The normalized steady-state inactivation curve is constructed using 2 sec (for vehicle) or 60 sec (for drugs) conditioning pulse to different potentials followed immediately by the test pulse to −10 mV. […] The affinity of drugs to resting state of Na channels (Kresting or Kr) is assessed by 30 msec test pulse from a negative holding potential of −120 or −130 mV, where virtually all channels are in the resting state. Kr value is calculated by a conventional 1:1 binding model: Kresting(Kr)={[drug]Imax,drug/(Imax,control−Imax,drug)} […]

With `CC(=O)Nc1cc(C(=O)NC(C)c2ccc(OCC(F)(F)F)nc2)ccn1` (single isomer, unassigned; (-)) [Example 1, (−)-2-acetamido-N-(1-(6-(2,2,2-trifluoroethoxy)pyridin-3-yl)ethyl)isonicotinamide] the “activity in paw incision-induced static allodynia (PWT)” value [1] was “significant activity” and the Ki (human Nav1.7 (hSCN9A)) was 1.2 µM.
